# Assay results as given in patent US4085114A, “1,2-Benzoisoxazole derivatives and the production thereof” (Shionogi & Co., Ltd., priority 1975, dated 1978).
# Legend:
# isolated atria = assay: β-Blocking activities in the isolated atria (inhibition of positive inotropic effect of isoproterenol); assay type: cell-based, Guinea-pigs; conditions: Cavia porcellus, read-out: fifty percent inhibitory concentration on the positive inotropic effect of isoproterenol (IC50), 1. Atria
# Method: (§1) Guinea-pigs of either sex, weighing between 400 - 700 g each, were killed by a sharp blow on the head. Their atria and trachea were quickly excised and freed of excess tissues.
# 1. β-Blocking activities in the isolated atria:
# The isolated atria were mounted in a 30 ml organ bath filled with Krebs-Ringer-bicarbonate solution, which was constantly bubbled with a gas mixture of 95% oxygen and 5% carbon dioxide at 30° C. Spontaneous contractions of the atria were isometrically recorded on the polygraph (RM-150, Nihon Kohden Kogyo) by mean of a F-D pick-up (N. K. K.) and the number of contractions in one minute was recorded on the home-made pulse counter triggered by the atrial contractions.
# in vivo = conditions: mouse, iv, female DS mice
# isolated trachea = assay: β-Blocking activities in the isolated trachea (inhibition of isoproterenol-induced relaxation of tracheal chain); assay type: cell-based, Guinea-pigs; conditions: Cavia porcellus, read-out: fifty percent inhibitory concentration on the relaxation of tracheal chain by isoproterenol (IC50), 2. Trachea
# From the text: as §1
smiles,measurement,setting,value
"Cc1noc2cccc(OCC(O)CNC(C)C)c12 (centres unmarked) [3-methyl-4-(2-hydroxy-3-isopropylaminopropoxy)-1,2-benzisoxazole]",IC50,isolated atria,25 ng/mL
same,LD50,in vivo,45 mg/kg
"Cc1noc2cccc(OCC(O)CNC(C)(C)C)c12 (centres unmarked) [3-methyl-4-(2-hydroxy-3-tert-butylaminopropoxy)-1,2-benzisoxazole]",IC50,isolated atria,7.9 ng/mL
same,IC50,isolated trachea,1.1 ng/mL
same,LD50,in vivo,41.8 mg/kg
